Patent US6229016A, “Method for treating tumors using 2-aryl-naphthyridin-4-ones” (priority 2000, dated 2001)
Like-named read-outs stand apart in the source and are kept apart here.

Legend:
tubulin [1] = assay: Colchicine binding assay; design: species or system bovine; conditions: for ICB (% Inhibition) (inhibition of colchicine binding): evaluated only when polymerization IC50 ≤ 1 μM, 5.0 μM inhibitor, 5.0 μM [3H]colchicine, 1.0 μM tubulin
Procedure: Electrophoretically homogeneous bovine brain tubulin was purified as described in E. Hamel, et al. Biochemistry 23:4173 (1984). Combretastatin A-4 was a generous gift of Dr. G. R Pettit, Arizona State University.
Incubation was for 20 min at 37° C. Each reaction mixture was filtered under reduced vacuum through a stack of two DEAE-cellulose paper filters, washed with water, and radioactivity quantitated in a liquid scintillation counter.
[…]. with 36' vs. 33'-35', and with 46' vs. 43'-45').

[2] = tested on: HCT-116 colon cancer cell line; assay: NCI in vitro screen, colon cancer HCT-116; type: cell-based; conditions: Homo sapiens; HCT-1.16 (head); HCT-116 (footnote); read-out: Cytotoxicity log GI50 (converted)
[3] = tested on: 786-0 renal cancer cell line; assay: NCI in vitro screen, renal cancer 786-0; type: cell-based; conditions: Homo sapiens, read-out: Cytotoxicity log GI50 (converted)
[4] = tested on: NCI's 60 human tumor cell line; assay: NCI 60 human tumor cell line in vitro screen (average / whole panel); type: cell-based; conditions: calculated from all cell lines tested, molar concentrations, read-out: average log GI50 (converted)
[5] = tested on: HL-60(TB) leukemia cell line; assay: cells; type: cell-based; conditions: Homo sapiens; for IC (TGI): HL-60, H-60 cell line, range over four compounds, read-out: log TGI; for GI50: HL-60(TB), read-out: Cytotoxicity log GI50 (converted)
[6] = tested on: MDA-MB-435 breast cancer cell line; assay: NCI in vitro screen, breast cancer MDA-MB-435; type: cell-based; conditions: Homo sapiens; for IC (TGI): range over four compounds and two cell lines, read-out: log TGI; for GI50: read-out: Cytotoxicity log GI50 (converted)
[7] = tested on: SK-MEL-5 melanoma cell line; assay: NCI in vitro screen, melanoma SK-MEL-5; type: cell-based; conditions: Homo sapiens, read-out: Cytotoxicity log GI50 (converted)
[8] = tested on: MDA-N breast cancer cell line; assay: NCI in vitro screen, breast cancer MDA-N; type: cell-based; conditions: Homo sapiens; for IC (TGI): range over four compounds and two cell lines, read-out: log TGI; for GI50: read-out: Cytotoxicity log GI50 (converted)
NCI-H226 cell line = assay: NCI in vitro screen, NCI-H226; type: cell-based; conditions: Homo sapiens, range over four compounds, read-out: log TGI
Text: Compounds 41-51 and 53-68 were submitted to NCI and assayed in the NCI's in vitro disease-oriented antitumor screen, which involves determination of a test compound's effects on the growth of approximately 60 human tumor cell lines. See, M. R. Boyd, et al. In Cancer: Principles and Practice of Oncology Updates; De Vita, V. T., Hellman, S., Rosenberg, S. A., Eds; J. B. Lippincoft: Philadelphia, pp 1-12 (1989); and A. Monks, et al. J. Natl. Cancer Inst. 83:757 (1991). These lines include leukemia, non-small cell lung, colon, central nervous system (CNS), melanoma, ovarian, renal, prostate, and breast cancers.

[9] = tested on: OVCAR-3 ovarian cancer cell line; assay: NCI in vitro screen, ovarian cancer OVCAR-3; type: cell-based; conditions: Homo sapiens, read-out: Cytotoxicity log GI50 (converted)
[10] = tested on: SF-295 CNS cancer cell line; assay: NCI in vitro screen, CNS cancer SF-295; type: cell-based; conditions: Homo sapiens, read-out: Cytotoxicity log GI50 (converted)
[11] = tested on: PC-3 prostate cancer cell line; assay: NCI in vitro screen, prostate cancer PC-3; type: cell-based; conditions: Homo sapiens, read-out: Cytotoxicity log GI50 (converted)
[12] = tested on: U-251 CNS cancer cell line; assay: NCI in vitro screen, CNS cancer U-251; type: cell-based; conditions: Homo sapiens, read-out: Cytotoxicity log GI50 (converted)
[13] = tested on: NCI-H460 non-small cell lung cancer cell line; assay: NCI in vitro screen, non-small cell lung cancer NCI-H460; type: cell-based; conditions: Homo sapiens, read-out: Cytotoxicity log GI50 (converted)
tubulin [14] = assay: Tubulin polymerization assay; type: biochemical, bovine
Procedure: Electrophoretically homogeneous bovine brain tubulin was purified as described in E. Hamel, et al. Biochemistry 23:4173 (1984).
The tubulin polymerization assay was performed as described in S. Kuo, et al. J. Med. Chem. 36:1146 (1993); L. Li, et al. J. Med. Chem. 37:1126 (1994); and L. Li J. Med. Chem. 37:3400 (1994). In brief, tubulin at 1.2 mg/ml (12 μM) was preincubated for 15 min at 26° C. in a 0.24-ml volume of 0.8 M monosodium glutamate (pH 6.6 with NaOH in a 2 M stock solution) with varying drug concentrations. The drug stock solutions were in DMSO, and the final solvent concentration was 4 % (v/v). All concentrations are in terms of the final reaction volume (0.25 ml). The reaction mixtures were chilled on ice, and 10 μl of 10 mM GTP was added to each reaction mixture. Samples were transferred to cuvettes held at 0° C. by an electronic temperature controller in Gilford spectrophotometers. Baselines were established at 350 nm, and polymerization initiated by a temperature jump to 26° C. The jump took about 50 sec to complete. After 20 min, turbidity readings were recorded, and the temperature controller was set to 0C. When depolymerization was complete, turbidity readings were again recorded. […] IC50 values were obtained graphically from inhibition of polymerization by different drug concentrations.
Electrophoretically, homogeneous bovine brain tubulin was purified as described in Example 6.
The tubulin polymerization assay was performed as described in Example 6.

[15] = tested on: central nervous system, lung, ovarian, colon, and renal cancers and melanoma and leukemia cell lines; assay: Cytotoxicity of isolated flavonol in panels of tumor cell lines; type: cell-based; conditions: in vitro
Text: In the course of this groups search for novel plant-derived potent cytotoxic agents that are active against slow-growing solid tumors, we have isolated several flavonols as antitumor principles from a phytochemically and biologically heretofore uninvestigated plant, Polanisia dodecandra. […]

[16] = Tables 1 and 4, read-out: ITP HC50 ± SD (Inhibition of Tubulin Polymerization)
[17] = read-out: IC50, inhibition of tubulin polymerization

Compound: COc1cc([C@@H]2c3cc4c(cc3[C@H](O)[C@H]3COC(=O)[C@H]23)OCO4)cc(OC)c1OC [podophyllotoxin, reference compound]
- ICB (% Inhibition) (inhibition of colchicine binding) (tubulin [1]): 76 ± 5%

Compound: COc1cccc(-c2cc(=O)c3cccnc3[nH]2)c1 [Compound 44]
- GI50 [2]: 0.0363 µM
- GI50 [3]: 0.0617 µM
- GI50 [4]: 0.135 µM
- IC (TGI) [5]: 0.0398 to 0.0646 µM
- GI50 [5]: 0.0162 µM
- IC (TGI) [6]: 0.0214 to 0.0398 µM
- GI50 [6]: < 0.01 µM
- GI50 [7]: 0.0537 µM
- IC (TGI) [8]: 0.0214 to 0.0398 µM
- GI50 [8]: < 0.01 µM
- IC (TGI) (NCI-H226 cell line): 0.0759 to 0.692 µM
- GI50 [9]: 0.055 µM
- GI50 [10]: 0.0525 µM
- GI50 [11]: 0.0933 µM
- GI50 [12]: 0.055 µM
- GI50 [13]: 0.0912 µM

Compound: COc1ccc(/C=C\c2cc(OC)c(OC)c(OC)c2)cc1O [combretastatin A-4, Combretastatin A-4]
- ICB (% Inhibition) (inhibition of colchicine binding) (tubulin [1]): 91 ± 2%

Compound: COc1cccc(-c2cc(=O)c3cc(Cl)cnc3[nH]2)c1 [Compound 49]
- GI50 [2]: 0.12 µM
- GI50 [3]: 0.427 µM
- GI50 [4]: 0.0977 µM
- IC (TGI) [5]: 0.0398 to 0.0646 µM
- GI50 [5]: 0.0269 µM
- IC (TGI) [6]: 0.0214 to 0.0398 µM
- GI50 [6]: 0.0324 µM
- GI50 [7]: 0.126 µM
- IC (TGI) [8]: 0.0214 to 0.0398 µM
- GI50 [8]: 0.0316 µM
- IC (TGI) (NCI-H226 cell line): 0.0759 to 0.692 µM
- GI50 [9]: 0.49 µM
- GI50 [10]: 0.0603 µM
- GI50 [11]: 0.138 µM
- GI50 [12]: 0.2 µM
- GI50 [13]: 0.0631 µM

Compound: COc1ccc(C2=Nc3nc(C)ccc3C(=O)C2)cc1 [Compound 54, 2-(4'-Methoxyphenyl)-7-methyl-1,8-naphthyridin-4-one]
- GI50 [2]: > 100 µM
- GI50 [3]: > 100 µM
- GI50 [4]: 91.2 µM
- GI50 [5]: > 100 µM
- GI50 [6]: 42.7 µM
- IC50 (tubulin [14]; [16]): > 40 µM
- GI50 [7]: 47.9 µM
- GI50 [8]: 55 µM
- GI50 [9]: > 100 µM
- GI50 [10]: 89.1 µM
- GI50 [11]: > 100 µM
- GI50 [12]: > 100 µM
- GI50 [13]: > 100 µM

Compound: Cc1cnc2c(c1)C(=O)CC(c1ccc(Cl)cc1)=N2 [Compound 64, 2-(4'-Chlorophenyl)-6-methyl-1,8-naphthyridin-4-one]
- GI50 [2]: 2.82 µM
- GI50 [3]: 6.31 µM
- GI50 [4]: 3.72 µM
- GI50 [5]: 2.24 µM
- GI50 [6]: 0.603 µM
- IC50 (tubulin [14]; [16]): 2 ± 0.01 µM
- IC50 (tubulin [14]; [17]): 1.5 to 9.8 µM
- GI50 [7]: 2.19 µM
- GI50 [8]: 0.562 µM
- GI50 [9]: 2.24 µM
- GI50 [10]: 2.4 µM
- GI50 [11]: 1.15 µM
- GI50 [12]: 3.02 µM
- GI50 [13]: 3.89 µM

Compound: COc1cccc(-c2cc(=O)c3cc(C)cnc3[nH]2)c1 [Compound 46]
- GI50 [2]: 0.0224 µM
- GI50 [3]: 0.0372 µM
- GI50 [4]: 0.0955 µM
- IC (TGI) [5]: 0.0398 to 0.0646 µM
- GI50 [5]: 0.0191 µM
- IC (TGI) [6]: 0.0214 to 0.0398 µM
- GI50 [6]: < 0.01 µM
- GI50 [7]: 0.0257 µM
- IC (TGI) [8]: 0.0214 to 0.0398 µM
- GI50 [8]: < 0.01 µM
- IC (TGI) (NCI-H226 cell line): 0.0759 to 0.692 µM
- GI50 [9]: 0.0417 µM
- GI50 [10]: 0.0372 µM
- GI50 [11]: 0.0427 µM
- GI50 [12]: 0.0447 µM
- GI50 [13]: 0.0437 µM

Compound: O=C1CC(c2ccc(Cl)cc2)=Nc2ncccc21 [Compound 62, 2-(4'-Chlorophenyl)-1,8-naphthyridin-4-one]
- GI50 [2]: 32.4 µM
- GI50 [3]: 33.9 µM
- GI50 [4]: 38.9 µM
- GI50 [5]: 16.6 µM
- GI50 [6]: 5.89 µM
- IC50 (tubulin [14]; [16]): 22 ± 0.1 µM
- IC50 (tubulin [14]; [17]): 11 to 32 µM
- GI50 [7]: 28.8 µM
- GI50 [8]: 8.32 µM
- GI50 [9]: 23.4 µM
- GI50 [10]: 40.7 µM
- GI50 [11]: 47.9 µM
- GI50 [12]: 39.8 µM
- GI50 [13]: 38 µM

Compound: COc1cccc(-c2cc(=O)c3ccc(C)nc3[nH]2)c1 [Compound 47]
- GI50 [2]: 0.0468 µM
- GI50 [3]: 0.0537 µM
- GI50 [4]: 0.0575 µM
- IC (TGI) [5]: 0.0398 to 0.0646 µM
- GI50 [5]: 0.0182 µM
- IC (TGI) [6]: 0.0214 to 0.0398 µM
- GI50 [6]: < 0.01 µM
- GI50 [7]: 0.0339 µM
- IC (TGI) [8]: 0.0214 to 0.0398 µM
- GI50 [8]: 0.011 µM
- IC (TGI) (NCI-H226 cell line): 0.0759 to 0.692 µM
- GI50 [9]: 0.0224 µM
- GI50 [10]: 0.0302 µM
- GI50 [11]: 0.0331 µM
- GI50 [12]: 0.0537 µM
- GI50 [13]: 0.0437 µM

Compound: COc1ccc(C2=Nc3ncc(C)cc3C(=O)C2)cc1 [Compound 53, 2-(4'-Methoxyphenyl)-6-methyl-1,8-naphthyridin-4-one]
- GI50 [2]: 4.17 µM
- GI50 [3]: 5.13 µM
- GI50 [4]: 6.17 µM
- GI50 [5]: 2.29 µM
- GI50 [6]: 1.82 µM
- IC50 (tubulin [14]; [16]): 7.7 ± 0.7 µM
- IC50 (tubulin [14]; [17]): 1.5 to 9.8 µM
- GI50 [7]: 3.72 µM
- GI50 [8]: 1.7 µM
- GI50 [9]: 2.95 µM
- GI50 [10]: 5.25 µM
- GI50 [11]: 5.37 µM
- GI50 [12]: 4.17 µM
- GI50 [13]: 4.07 µM

Compound: COc1ccc(-c2oc3c(OC)c(OC)c(OC)c(O)c3c(=O)c2OC)cc1O [5,3'-dihydroxy-3,6,7,8,4'-pentamethoxyflavone]
- GI50 values [15]: low micromolar to nanomolar concentration range
- inhibition of radiolabeled colchicine binding to tubulin (tubulin [1]; equimolar concentration with colchicine, background section): 59%
- IC50 (tubulin [14]; earlier finding, background section, read-out: IC50, inhibitor of tubulin polymerization): 0.83 ± 0.2 µM
